These results are taken from EP4782449A1, “TRICYCLIC PYRIDINE COMPOUND ACTING AS SARM1 ENZYME ACTIVITY INHIBITOR, AND USE THEREOF” (Artivila (ShenZhen) Innovation Center, Ltd., priority 2023, dated 2025).

Experiment [1] deals with T1, SARM1 (Homo sapiens, UniProt Q6SZW1).
T1 construct: inventors produced full-length SARM1 for NAD enzyme activity experiments, and used it for screening; His (C); made in house; host or cells: HEK293 cells, transient transfection; supernatant of digitonin lysate, no further purification described
T1 sequence (Q6SZW1 28-724): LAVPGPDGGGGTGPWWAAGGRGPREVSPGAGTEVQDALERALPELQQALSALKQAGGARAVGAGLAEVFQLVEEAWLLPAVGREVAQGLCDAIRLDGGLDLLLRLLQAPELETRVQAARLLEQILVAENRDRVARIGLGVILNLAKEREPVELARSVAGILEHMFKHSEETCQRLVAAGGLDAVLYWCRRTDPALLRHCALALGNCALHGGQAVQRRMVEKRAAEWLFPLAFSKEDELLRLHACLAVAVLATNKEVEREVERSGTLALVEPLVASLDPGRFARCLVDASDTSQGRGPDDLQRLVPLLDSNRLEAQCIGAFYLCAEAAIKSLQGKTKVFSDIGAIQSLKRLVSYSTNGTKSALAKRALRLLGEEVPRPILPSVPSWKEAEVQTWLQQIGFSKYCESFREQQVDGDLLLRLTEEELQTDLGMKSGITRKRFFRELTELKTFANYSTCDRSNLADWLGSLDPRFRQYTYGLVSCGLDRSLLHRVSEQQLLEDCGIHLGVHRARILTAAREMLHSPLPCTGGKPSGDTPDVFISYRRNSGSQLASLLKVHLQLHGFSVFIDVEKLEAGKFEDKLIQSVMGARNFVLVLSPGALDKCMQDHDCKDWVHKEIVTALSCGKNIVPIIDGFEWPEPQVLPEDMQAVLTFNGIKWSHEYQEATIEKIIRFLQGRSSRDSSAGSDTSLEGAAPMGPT
As to the kind of experiment: In vitro biochemical assay for inhibiting SARM1 enzyme activity (PC6 fluorescence, NADase). As to conditions: full-length SARM1 from transfected HEK293 cells, 50 µM NAD, 50 µM PC6, 50 µM NMN activator, room temperature, 30 minutes. The procedure, abridged: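 Lysate supernatant from HEK293 cells transfected 48 hours with His-tagged SARM1 was obtained by 100 μM digitonin lysis and preincubated with inhibitor 10 minutes at room temperature.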

The subject of experiment [2] is dorsal root ganglion explants. Nature of the experiment: Axonal Wallerian degeneration assay in mouse DRG explant culture. Format: cell-based, C57BL/6 male mice. As to conditions: 10 µM test compound, 2 hours pretreatment, axons transected, images at 0 hour and 24 hours. The procedure, abridged:
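Explants from 2-month-old male C57BL/6 mouse DRG were cultured 8 days in Neurobasal/B-27 with 10 ng/mL NGF. They were pretreated 2 h with 10 µM compound at 37°C, then axons were transected with a glass electrode. Axonal integrity was scored by script from bright-field images at 0 and 24 h.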

Where two headings read alike, the source gives them in different places.

A word on the IC50: it is the concentration that gives 50% inhibition. On to `O=C(NCc1ccc(Cl)cc1)Nc1ccc2c(c1)COc1cnccc1-2` [Compound 63], for which, in experiment [1] (read-out: IC50), the IC50 was in the range of 100 to 1000 nM. Also, the “Degree of Protection Against Axonal Wallerian Degeneration” value (shortened to “Degree”) in experiment [2] is recorded as “A (substantial protection (A) >50%)”.
The corresponding values for `O=C(CCc1cc(F)cc(F)c1)Nc1cnc2c(c1)COc1cnccc1-2` [Compound 96] are less than 100 nM and “A (substantial protection (A) >50%)”.
Taken in the same sequence, the figures for `O=C(CCc1cccc(F)c1)Nc1ccc2c(c1)COc1cnccc1-2` [Compound 34] were less than 100 nM and “A (substantial protection (A) >50%)”.
On to `O=C(NCc1ccc(F)cc1)Nc1cnc2c(c1)COc1cnccc1-2` [Compound 101, 1-(4-fluorobenzyl)-3-(5H-pyrano[4,5-b:2,3-c']dipyridin-3-yl)urea], for which the IC50 in experiment [1] (read-out: IC50) was less than 100 nM. For the same molecule, in experiment [2], the “Degree” value is listed as “A (substantial protection (A) >50%)”.
`O=C(CCc1ccccc1)Nc1cnc2c(c1)COc1cnccc1-2` [Compound 95]: the IC50 in experiment [1] (read-out: IC50) is less than 100 nM. Further, in experiment [2], the “Degree” value is on record as “B (partial protection (B): 20% to 50%)”.
`O=C1C(Cc2cc(F)c(Cl)c(F)c2)CCN1c1ccc2c(c1)COc1cnccc1-2` (stereo not shown) [Compound 18]: in experiment [1] (read-out: IC50), the IC50 lay in the range of 1000 to 10000 nM. Further, the “Degree” value in experiment [2] is reported as “B (partial protection (B): 20% to 50%)”.
The corresponding values for `O=C(CCc1ccc(F)c(F)c1)Nc1ccc2c(c1)COc1cnccc1-2` [Compound 25] are less than 100 nM and “A (substantial protection (A) >50%)”.
For the molecule `O=C1C(Cc2ccc3ccsc3c2)CCN1c1ccc2c(c1)COc1cnccc1-2` (stereo not shown) [Compound 58], in experiment [1] (read-out: IC50), the half-maximal inhibitory concentration (IC50) was in the range of 1000 to 10000 nM. In experiment [2], the “Degree” value is “B (partial protection (B): 20% to 50%)”.
The corresponding values for `O=C(CCc1ccc(Cl)c(F)c1)Nc1ccc2c(c1)COc1cnccc1-2` [Compound 28] are 100 to 1000 nM and “A (substantial protection (A) >50%)”.
In the case of `O=C(CCc1ccc(Cl)c(Cl)c1)Nc1ccc2c(c1)COc1cnccc1-2` [Compound 21], in experiment [1] (read-out: IC50), the IC50 is less than 100 nM. The “Degree” value in experiment [2] is “A (substantial protection (A) >50%)”.
In the case of `Fc1ccc(CNC(=S)Nc2ccc3c(c2)COc2cnccc2-3)cc1` [Compound 77, 1-(4-fluorobenzyl)-3-(6H-isochromeno[3,4-c]pyridin-8-yl)thiourea], in experiment [1], the IC50 was less than 100 nM. Further, the “Degree” value in experiment [2] was “B (partial protection (B): 20% to 50%)”.
